Experiments:
[1] = Permeability by lipid-PAMPA; format: in vitro ADME; conditions: lecithin/dodecane, PBS pH 7.4, 16 h
Procedure: A 1.8% solution (w/v) of lecithin in dodecane was added to each acceptor plate well (top), followed by application of the artificial membrane and addition of 300 μL of PBS (pH 7.4) solution to each well of the acceptor plate. Compounds were added to the donor plate and incubated at 25 °C, 60 rpm for 16 h. After incubation, aliquots of 50 μL from each acceptor well and donor plate were transferred into a 96-well plate, vortexed at 750 rpm for 100 s and centrifuged at 3220g for 20 min. Compound concentrations and effective permeability (Pe) were determined by LC/MS/MS.

HDAC1 = biological target: T1, HDAC1 (Homo sapiens, UniProt Q13547); test: HDAC EMSA activity assay (Nanosyn); format: biochemical
T1 construct: The full-length human HDACs were recombinantly expressed and purified from SF9 insect cells; host or cells: SF9 insect cells
T1 sequence (Q13547 whole entry): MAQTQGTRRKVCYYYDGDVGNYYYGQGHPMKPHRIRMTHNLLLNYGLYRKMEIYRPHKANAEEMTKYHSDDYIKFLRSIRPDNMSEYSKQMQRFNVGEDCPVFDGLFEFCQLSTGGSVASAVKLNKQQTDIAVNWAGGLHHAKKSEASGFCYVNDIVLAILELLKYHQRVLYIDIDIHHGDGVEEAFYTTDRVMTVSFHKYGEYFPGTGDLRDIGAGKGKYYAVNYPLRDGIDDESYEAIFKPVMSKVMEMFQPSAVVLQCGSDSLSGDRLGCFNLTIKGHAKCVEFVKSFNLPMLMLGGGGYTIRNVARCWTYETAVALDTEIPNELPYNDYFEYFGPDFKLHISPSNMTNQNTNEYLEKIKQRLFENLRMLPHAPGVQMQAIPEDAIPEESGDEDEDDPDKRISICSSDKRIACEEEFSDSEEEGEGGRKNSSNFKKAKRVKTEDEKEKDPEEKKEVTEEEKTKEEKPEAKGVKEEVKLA
Procedure: (§1) The full-length human HDACs were recombinantly expressed and purified from SF9 insect cells. All compounds were serially prediluted in DMSO from a top concentration of 10 or 1 μM and introduced into the 384-well plates through an acoustic dispenser (Labcyte550) into the reaction buffer (100 mM HEPES, pH 7.5, 25 mM KCl, 0.1% BSA, 0.01% Triton X-100, and enzyme). The total concentration of DMSO was 1% in all wells. The deacetylation reaction was initiated by introduction of a FAM-labeled acetylated peptide substrate. The reaction was monitored through the change in the relative fluorescence intensity of the substrate and product peaks. The activity was determined as the product sum ratio (PSR): P/(S + P), where P = product peak height and S = substrate peak height. […] Inhibition curves (Pinh vs inhibitor concentration) were fitted by a four-parameter sigmoid dose–response model using XLfit software (IDBS) to determine the IC50 values.

HDAC10 = biological target: T2, HDAC10 (Homo sapiens, UniProt Q969S8); test: HDAC EMSA activity assay (Nanosyn); format: biochemical
T2 construct: The full-length human HDACs were recombinantly expressed and purified from SF9 insect cells; host or cells: SF9 insect cells
T2 sequence (Q969S8 whole entry): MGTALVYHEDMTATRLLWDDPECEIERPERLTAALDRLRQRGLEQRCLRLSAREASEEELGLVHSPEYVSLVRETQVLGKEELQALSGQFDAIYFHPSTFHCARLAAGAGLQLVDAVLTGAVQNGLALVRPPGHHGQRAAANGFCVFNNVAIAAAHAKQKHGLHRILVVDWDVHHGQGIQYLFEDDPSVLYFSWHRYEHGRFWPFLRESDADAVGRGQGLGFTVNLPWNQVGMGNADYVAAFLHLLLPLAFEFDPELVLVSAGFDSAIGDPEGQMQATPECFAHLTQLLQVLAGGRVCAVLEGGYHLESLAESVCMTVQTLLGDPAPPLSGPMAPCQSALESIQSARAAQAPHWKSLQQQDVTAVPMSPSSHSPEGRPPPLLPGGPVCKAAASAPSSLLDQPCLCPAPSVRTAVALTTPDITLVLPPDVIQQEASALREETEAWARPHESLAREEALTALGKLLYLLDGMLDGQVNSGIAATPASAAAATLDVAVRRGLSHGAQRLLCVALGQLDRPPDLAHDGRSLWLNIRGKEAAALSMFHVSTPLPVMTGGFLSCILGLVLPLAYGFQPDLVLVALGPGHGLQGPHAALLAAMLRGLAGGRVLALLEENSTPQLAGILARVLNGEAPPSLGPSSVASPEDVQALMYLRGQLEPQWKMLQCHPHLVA
Procedure: as §1

HDAC7 = biological target: T3, HDAC7 (Homo sapiens, UniProt Q8WUI4); test: HDAC EMSA activity assay (Nanosyn); format: biochemical
T3 construct: The full-length human HDACs were recombinantly expressed and purified from SF9 insect cells; host or cells: SF9 insect cells
T3 sequence (Q8WUI4 whole entry): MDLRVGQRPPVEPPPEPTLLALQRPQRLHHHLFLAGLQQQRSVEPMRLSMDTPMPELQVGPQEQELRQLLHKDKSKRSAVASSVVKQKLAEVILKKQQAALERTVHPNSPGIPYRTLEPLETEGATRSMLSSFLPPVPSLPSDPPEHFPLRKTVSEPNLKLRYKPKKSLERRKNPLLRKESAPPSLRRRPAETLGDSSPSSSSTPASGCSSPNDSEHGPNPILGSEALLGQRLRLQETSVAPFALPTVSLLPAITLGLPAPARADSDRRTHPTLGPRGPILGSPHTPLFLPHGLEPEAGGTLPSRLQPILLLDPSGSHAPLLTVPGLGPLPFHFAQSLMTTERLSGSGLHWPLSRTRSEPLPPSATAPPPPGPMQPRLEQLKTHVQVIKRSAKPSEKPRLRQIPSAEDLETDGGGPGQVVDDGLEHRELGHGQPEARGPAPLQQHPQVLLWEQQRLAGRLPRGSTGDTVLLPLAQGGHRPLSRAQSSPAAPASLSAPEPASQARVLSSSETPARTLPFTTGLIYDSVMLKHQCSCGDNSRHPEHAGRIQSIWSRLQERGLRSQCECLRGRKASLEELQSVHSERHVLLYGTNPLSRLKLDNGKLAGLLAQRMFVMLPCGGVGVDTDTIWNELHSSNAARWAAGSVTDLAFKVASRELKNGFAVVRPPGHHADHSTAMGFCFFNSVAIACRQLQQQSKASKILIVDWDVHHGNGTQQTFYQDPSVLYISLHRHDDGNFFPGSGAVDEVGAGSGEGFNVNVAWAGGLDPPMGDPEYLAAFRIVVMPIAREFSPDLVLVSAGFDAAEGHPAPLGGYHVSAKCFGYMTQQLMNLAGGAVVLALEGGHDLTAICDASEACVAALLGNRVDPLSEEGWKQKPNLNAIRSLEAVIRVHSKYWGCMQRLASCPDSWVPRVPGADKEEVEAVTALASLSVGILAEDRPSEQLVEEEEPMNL
Procedure: as §1

HDAC5 = biological target: T4, HDAC5 (Homo sapiens, UniProt Q9UQL6); test: HDAC EMSA activity assay (Nanosyn); format: biochemical
T4 construct: The full-length human HDACs were recombinantly expressed and purified from SF9 insect cells; host or cells: SF9 insect cells
T4 sequence (Q9UQL6 whole entry): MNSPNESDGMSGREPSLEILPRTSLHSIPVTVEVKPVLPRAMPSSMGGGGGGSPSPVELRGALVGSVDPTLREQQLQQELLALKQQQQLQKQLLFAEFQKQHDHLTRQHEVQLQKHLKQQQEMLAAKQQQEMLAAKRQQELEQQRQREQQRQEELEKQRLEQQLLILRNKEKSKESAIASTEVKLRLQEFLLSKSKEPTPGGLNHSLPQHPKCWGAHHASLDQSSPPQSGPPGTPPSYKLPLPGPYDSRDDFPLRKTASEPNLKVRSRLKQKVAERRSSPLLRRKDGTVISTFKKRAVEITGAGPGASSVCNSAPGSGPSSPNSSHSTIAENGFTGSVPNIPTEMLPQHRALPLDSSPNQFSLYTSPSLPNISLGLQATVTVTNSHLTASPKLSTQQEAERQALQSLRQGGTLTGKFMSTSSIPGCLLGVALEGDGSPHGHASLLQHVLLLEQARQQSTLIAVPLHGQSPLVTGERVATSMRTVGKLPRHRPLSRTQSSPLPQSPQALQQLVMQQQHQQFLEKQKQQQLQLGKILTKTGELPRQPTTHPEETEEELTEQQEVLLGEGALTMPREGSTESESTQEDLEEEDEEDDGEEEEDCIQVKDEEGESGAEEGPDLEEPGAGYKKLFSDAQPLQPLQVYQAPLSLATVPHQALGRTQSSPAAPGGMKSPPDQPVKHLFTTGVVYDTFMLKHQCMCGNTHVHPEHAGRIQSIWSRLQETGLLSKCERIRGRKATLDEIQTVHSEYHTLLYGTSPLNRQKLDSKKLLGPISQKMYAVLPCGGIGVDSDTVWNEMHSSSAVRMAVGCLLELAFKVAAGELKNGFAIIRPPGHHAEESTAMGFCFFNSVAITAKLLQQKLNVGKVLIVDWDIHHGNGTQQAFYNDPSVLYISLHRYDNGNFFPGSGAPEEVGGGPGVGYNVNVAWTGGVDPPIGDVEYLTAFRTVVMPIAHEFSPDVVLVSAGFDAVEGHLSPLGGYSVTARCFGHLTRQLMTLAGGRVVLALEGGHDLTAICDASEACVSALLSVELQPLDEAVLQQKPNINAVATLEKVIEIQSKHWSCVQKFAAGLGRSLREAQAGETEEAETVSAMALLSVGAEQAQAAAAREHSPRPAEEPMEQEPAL
Procedure: as §1

HDAC9 = biological target: T5, HDAC9 (Homo sapiens, UniProt Q9UKV0); test: HDAC EMSA activity assay (Nanosyn); format: biochemical
T5 construct: The full-length human HDACs were recombinantly expressed and purified from SF9 insect cells; host or cells: SF9 insect cells
T5 sequence (Q9UKV0 whole entry): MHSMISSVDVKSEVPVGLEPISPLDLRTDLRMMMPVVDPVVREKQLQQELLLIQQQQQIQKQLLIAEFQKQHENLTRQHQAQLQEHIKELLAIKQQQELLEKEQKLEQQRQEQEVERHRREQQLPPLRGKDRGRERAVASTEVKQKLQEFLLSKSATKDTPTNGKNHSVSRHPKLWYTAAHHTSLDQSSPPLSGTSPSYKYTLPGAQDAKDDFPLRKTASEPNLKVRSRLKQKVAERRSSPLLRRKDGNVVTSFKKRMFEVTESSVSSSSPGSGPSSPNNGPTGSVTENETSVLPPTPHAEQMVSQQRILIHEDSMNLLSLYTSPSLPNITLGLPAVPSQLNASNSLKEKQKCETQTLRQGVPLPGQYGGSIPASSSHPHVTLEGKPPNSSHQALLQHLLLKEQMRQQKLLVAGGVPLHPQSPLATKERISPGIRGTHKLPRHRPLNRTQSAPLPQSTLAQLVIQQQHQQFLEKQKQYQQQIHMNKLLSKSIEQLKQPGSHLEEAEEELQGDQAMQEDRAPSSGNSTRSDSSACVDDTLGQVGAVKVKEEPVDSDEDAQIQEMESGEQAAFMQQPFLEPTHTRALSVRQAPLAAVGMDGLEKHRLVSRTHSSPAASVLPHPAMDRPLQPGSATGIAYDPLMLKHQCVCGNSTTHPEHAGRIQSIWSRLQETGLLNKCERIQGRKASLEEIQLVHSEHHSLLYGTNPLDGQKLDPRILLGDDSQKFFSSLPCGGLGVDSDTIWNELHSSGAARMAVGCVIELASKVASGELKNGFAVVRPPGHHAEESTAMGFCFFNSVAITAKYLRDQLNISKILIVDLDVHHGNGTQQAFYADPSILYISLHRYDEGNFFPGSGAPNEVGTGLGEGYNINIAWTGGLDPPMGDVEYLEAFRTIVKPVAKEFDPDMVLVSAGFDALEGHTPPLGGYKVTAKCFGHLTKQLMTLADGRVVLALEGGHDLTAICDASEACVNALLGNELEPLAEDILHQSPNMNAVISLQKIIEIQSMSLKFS
Procedure: as §1

[2] = In vivo PK study in CD-1 male mice; conditions: mouse, plasma, CD-1 mice, IP, 20 mg/kg
[3] = In vitro stability in mouse hepatocytes; format: in vitro ADME
Procedure: The inhibitors (and controls) were formulated to concentrations of 100 μM in 50% acetonitrile/50% water. The medium (William’s E Medium supplemented with GlutaMAX) and hepatocyte thawing medium were allowed to reach room temperature and the hepatocytes and thawing medium and centrifuged at 100 g for 10 min. The supernatant was removed, and hepatocytes resuspended in the incubation medium (∼1.5 × 10^6 cells/mL). The cells were diluted to 0.5 × 10^6 viable cells/mL. A volume of 198 μL of hepatocytes was transferred to a 96-well noncoated plate and incubated at 37 °C for 10 min. Following this, 2 μL of the 100 μM test compounds or positive control was transferred into respective wells to start the reaction. At different time points (0, 15, 30, 60, 90, and 120 min), 25 μL aliquots were mixed with 6 volumes (150 μL) of acetonitrile containing internal standard, IS (100 nM alprazolam, 200 nM labetalol, 200 nM caffeine, and 200 nM diclofenac) to terminate the reaction. Samples were vortexed for 5 min and centrifuged for 45 min at 3220g, diluted by ultrapure water, followed by LC/MS/MS analysis. The in vitro half-life (T1/2) was determined by regression analysis of the percent parent disappearance vs time curve (T1/2 = 0.693/k) using Microsoft Excel.

[4] = read-out: Stability in mouse hepatocytes t1/2

With `O=C(NO)c1ccc(CN(C2CC2)S(=O)(=O)c2cc(F)c(F)c(F)c2F)cc1` [Compound 14, 4-(((N-Cyclopropyl-2,3,4,5-tetrafluorophenyl)sulfonamido)methyl)-N-hydroxybenzamide] the “PAMPA -Log Pe” value ([1]; listed as 14 (KT-531)) was 5.44 ± 0.06, the “PAMPA -Log Pe” value ([1]; listed as KT-531) was 5.44 and the IC50 (HDAC1) was greater than 1000 nM. It also gave an IC50 (HDAC10) greater than 1000 nM, an IC50 (HDAC7) greater than 1000 nM and an IC50 (HDAC5) greater than 1000 nM. The IC50 (HDAC9) was greater than 1000 nM, the Cmax at 24 h [2] was 493 ng/mL and the MRT at 24 h [2] was 126 ± 30 min. For the same molecule, the AUC(0-t) at 24 h ([2]; read-out: In vivo AUClast (overall exposure)) was 1580 ng·h/mL, the half-life ([2]; read-out: In vivo t1/2) was 63 min and the hepatocyte CLint at 2 h, 1 μM [3] was 37.6 ± 0.6 µL/min/1e6 cells. For the same molecule, the half-life at 1 μM [3, 4] was 37 min and the half-life at 2 h, 1 μM [3, 4] was 36.9 ± 0.59 min.
